The text below walks through data of US20250376472A1, “3-(PHENYLSULFONYL)-[1,2,3]TRIAZOLO[1,5A]QUINAZOLIN-5(4H)-ONE DERIVATIVES” (priority 2022, published 2025).

Each structure is given as a SMILES string.

For the assay, the target named is T1, AgrA (Staphylococcus aureus, UniProt P0A0I7).
T1 construct: endogenous in cells; host or cells: S. aureus USA300 strain UAMS-1625 carrying a P3-lacZ reporter plasmid
Kind of assay: cell-based. Also noted: species or system S. aureus. As to conditions: for Ratio IC50 (in presence of HSA)/IC50 (in absence of HSA): 40 mg/mL HSA versus no HSA. As for the experimental part: The inventive compounds are 3-(phenylsulfonyl)-[1,2,3]triazolo[1,5a]quinazolin-5(4h)-one derivatives comprising an N-bound piperazine or homopiperazine at the 8-position of the [1,2,3]triazolo[1,5a]quinazolin-5(4h)-one core, further substituted (on the second nitrogen atom) by an (optionally substituted) acetyl or propionyl amide group. […] Specifically, the reporter gene lacZ (which encodes the protein product β-galactosidase) was transfected into S. aureus with a plasmid under control of the P3 promoter. The compounds were serially diluted in lysogeny broth (LB), and incubated with S. aureus. Following incubation, the S. aureus cells were lysed and treated with 4-methylumbelliferyl-galactopyranoside (MUG). The β-galactosidase produced by expression of lacZ cleaved the MUG into galactopyranose and 4-methylumbelliferone, which was measured by fluorescence.
The resulting reporter strain was used to measure AgrA inhibitory activity as follows. From an overnight culture plate, cells were resuspended in 0.9% (w/v) saline solution and bacterial inoculum was prepared in LB medium with 5×10^5 CFU/ml. Compounds were two-fold serially diluted in LB and 50 μL of this 10× concentrated samples were added into the 96-deep well plate. 500 μL of bacterial suspension was finally added to the compounds or DMSO control. Plates were covered and incubated with shaking at 37° C. After 18 hours incubation, 100 μL was transferred to a new clear 96-well plate and the OD600 was measured using a TECAN Infinite F200 microplate reader to control for growth inhibition. Another 100 μL was transferred to a new black 96-well plate containing 30 μL of lysis buffer (20 mM Tris/HCl, 3 mM MgCl2, 0.5% Tween 20 (v/v), 0.5% NP-40 (v/v)) and the plate was incubated with shaking at 37° C. for 60 min. 20 μL of the substrate MUG (4-Methylumbelliferyl O-D-galactopyranoside) at 0.25 mg/ml was added and the fluorescence (excitation: 360 nm, emission: 450 mu) was measured with a TECAN Infinite F200 microplate reader after 3 hours incubation at 37° C. with shaking. The IC50 was determined using GraphPad PRISM after normalization to DMSO control.

Setting [1] is: IC50 at 40 mg/mL HSA, LB medium supplemented with human serum albumin 40 mg/mL.
[2] abbreviates: IC50 without HSA, LB medium, no human serum albumin, 18 hours incubation.
[3] abbreviates: LB medium supplemented with human serum albumin 40 mg/mL.
[4] abbreviates: LB medium, no human serum albumin, 18 hours incubation.

T1 sequence (P0A0I7 whole entry): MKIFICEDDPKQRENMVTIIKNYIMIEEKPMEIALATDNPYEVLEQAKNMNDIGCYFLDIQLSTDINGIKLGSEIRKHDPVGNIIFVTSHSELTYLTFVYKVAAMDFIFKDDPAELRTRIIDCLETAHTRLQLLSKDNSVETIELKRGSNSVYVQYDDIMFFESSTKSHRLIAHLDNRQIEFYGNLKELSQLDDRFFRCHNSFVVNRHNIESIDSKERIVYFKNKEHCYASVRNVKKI

For `Cc1ccc(S(=O)(=O)c2nnn3c2[nH]c(=O)c2ccc(N4CCN(CC(=O)NCCCC5CCCCC5)CC4)cc23)c(C)c1` [Compound 44], the IC50 runs as follows: under setting [1], 16.1 to 80.7 µM; under setting [2], 1.61 to 8.07 µM.

As for `Cc1ccc(S(=O)(=O)c2nnn3c2[nH]c(=O)c2ccc(N4CCC4)cc23)c(C)c1` [Compound 45 of WO 2020/109350, reference compound], the “Ratio IC50 (in presence of HSA)/IC50 (in absence of HSA)” value (shortened to “Ratio IC50 (in presence of HSA)/IC50”) is “+ (+: ratio > 125)”. The same molecule showed a concentration for half-maximal inhibition (IC50) under setting [1] of more than 122 µM. Further, the IC50 (IC50 in the presence of 40 mg/mL HSA, 40 mg/mL HSA, highest concentration tested 128 μg/mL) is more than 313 µM. Further, the IC50 under setting [2] is less than 2.44 µM. Further, the IC50 (concentration inhibiting the expression of lacZ in the absence of HSA, absence of HSA) is less than 2.44 µM.

As to `Cc1ccc(S(=O)(=O)c2nnn3c2[nH]c(=O)c2ccc(N4CCCN(CC(=O)NC5CCC5)CC4)cc23)c(C)c1` [Compound 51], the IC50 by setting is: under setting [1], 17.7 to 88.7 µM; under setting [2], less than 1.77 µM.

For the molecule `Cc1ccc(S(=O)(=O)c2nnn3c2[nH]c(=O)c2ccc(N4CCCN(CC(=O)NC5CCCC5)CC4)cc23)c(C)c1` [Compound 52], the IC50 is, setting by setting: under setting [1], 17.3 to 86.5 µM; under setting [2], 1.73 to 8.65 µM.

As for `Cc1ccc(S(=O)(=O)c2nnn3c2[nH]c(=O)c2ccc(N4CCCN(CC(=O)NC5CCCCC5)CC4)cc23)c(C)c1` [Compound 53], the “Ratio IC50 (in presence of HSA)/IC50” value is on record as “+++ (+++: ratio ≤ 25)”. Further, under setting [3], the “IC50 at 40 mg/mL HSA” value was “++ (++: 10 μg/mL < IC50 ≤ 50 μg/mL)”. The “IC50 without HSA” value under setting [4] is on record as “++ (++: 1 μg/mL < IC50 ≤ 5 μg/mL)”.

Consider `Cc1ccc(S(=O)(=O)c2nnn3c2[nH]c(=O)c2ccc(N4CCN(CC(=O)N5CCC5)CC4)cc23)c(C)c1` [Compound 54], for which the concentration for half-maximal inhibition (IC50) is 18.7 to 93.3 µM under setting [1] and less than 1.87 µM under setting [2].

For the molecule `Cc1ccc(S(=O)(=O)c2nnn3c2[nH]c(=O)c2ccc(N4CCN(CC(=O)N5CCCCC5)CC4)cc23)c(C)c1` [Compound 55], the IC50 was 17.7 to 88.7 µM under setting [1] and less than 1.77 µM under setting [2].

`Cc1ccc(S(=O)(=O)c2nnn3c2[nH]c(=O)c2ccc(N4CCN(CC(=O)N5CCCCCC5)CC4)cc23)c(C)c1` [Compound 56]: the “Ratio IC50 (in presence of HSA)/IC50” value was “++ (++: 25 < ratio ≤ 125)”. The “IC50 at 40 mg/mL HSA” value under setting [3] is “++ (++: 10 μg/mL < IC50 ≤ 50 μg/mL)”. The “IC50 without HSA” value under setting [4] is reported as “+++ (+++: IC50 ≤ 1 μg/mL)”.

For `Cc1ccc(S(=O)(=O)c2nnn3c2[nH]c(=O)c2ccc(N4CCN(CC(=O)N5CCCOCC5)CC4)cc23)c(C)c1` [Compound 57], the IC50 runs as follows: under setting [1], 17.3 to 86.3 µM; under setting [2], less than 1.73 µM.

For `Cc1ccc(S(=O)(=O)c2nnn3c2[nH]c(=O)c2ccc(N4CCN(CC(=O)N5CCN(C)CC5)CC4)cc23)c(C)c1` [Compound 58], the half-maximal inhibitory concentration (IC50) reads like this: under setting [1], 17.3 to 86.4 µM; under setting [2], less than 1.73 µM.

Consider `Cc1ccc(S(=O)(=O)c2nnn3c2[nH]c(=O)c2ccc(N4CCN(CC(=O)N5CCN(C(C)(C)C)CC5)CC4)cc23)c(C)c1` [Compound 59], for which the IC50 runs as follows: under setting [1], less than 16.1 µM; under setting [2], 1.61 to 8.05 µM.

`Cc1ccc(S(=O)(=O)c2nnn3c2[nH]c(=O)c2ccc(N4CCN(CC(=O)N5CCN(C6CC6)CC5)CC4)cc23)c(C)c1` [Compound 60]: the IC50 is less than 16.5 µM under setting [1] and less than 1.65 µM under setting [2].

Take `Cc1ccc(S(=O)(=O)c2nnn3c2[nH]c(=O)c2ccc(N4CCN(CC(=O)N5CCNC(=O)C5)CC4)cc23)c(C)c1` [Compound 62]: the half-inhibitory concentration (IC50) by setting is: under setting [1], 17.3 to 86.4 µM; under setting [2], 1.73 to 8.64 µM.

Turning to `Cc1ccc(S(=O)(=O)c2nnn3c2[nH]c(=O)c2ccc(N4CCN(CC(=O)N5CCC(F)(F)CC5)CC4)cc23)c(C)c1` [Compound 64], the IC50 reads like this: under setting [1], 16.7 to 83.4 µM; under setting [2], less than 1.67 µM.

For the molecule `Cc1ccc(S(=O)(=O)c2nnn3c2[nH]c(=O)c2ccc(N4CCN(CC(=O)N5CCC(N(C)C)CC5)CC4)cc23)c(C)c1` [Compound 65], the IC50 was less than 16.5 µM under setting [1] and 1.65 to 8.24 µM under setting [2].

Regarding `Cc1ccc(S(=O)(=O)c2nnn3c2[nH]c(=O)c2ccc(N4CCN(CC(=O)N5CCCC(O)C5)CC4)cc23)c(C)c1` (stereo not drawn) [Compound 67], the IC50 is 17.3 to 86.3 µM under setting [1] and 1.73 to 8.63 µM under setting [2].

As for `Cc1ccc(S(=O)(=O)c2nnn3c2[nH]c(=O)c2ccc(N4CCN(CC(=O)N5CCCN(C)CC5)CC4)cc23)c(C)c1` [Compound 69], the half-inhibitory concentration (IC50) is less than 16.9 µM under setting [1] and 1.69 to 8.44 µM under setting [2].

Consider `Cc1ccc(S(=O)(=O)c2nnn3c2[nH]c(=O)c2ccc(N4CCN(CC(=O)N5CCCN(C(C)C)CC5)CC4)cc23)c(C)c1` [Compound 70], for which the IC50 is 16.1 to 80.5 µM under setting [1] and less than 1.61 µM under setting [2].

On to `Cc1ccc(S(=O)(=O)c2nnn3c2[nH]c(=O)c2ccc(N4CCN(CC(=O)N5CCCN(CCO)CC5)CC4)cc23)c(C)c1` [Compound 71], for which the IC50 was in the range of 16.1 to 80.3 µM under setting [1] and 1.61 to 8.03 µM under setting [2].

For `Cc1ccc(S(=O)(=O)c2nnn3c2[nH]c(=O)c2ccc(N4CCN(CC(=O)N5CCCC(=O)CC5)CC4)cc23)c(C)c1` [Compound 72], the concentration for half-maximal inhibition (IC50) under setting [1] was 16.9 to 84.5 µM and the IC50 under setting [2] was less than 1.69 µM.

`Cc1ccc(S(=O)(=O)c2nnn3c2[nH]c(=O)c2ccc(N4CCN(CC(=O)N5CC(C6CC6)C5)CC4)cc23)c(C)c1` [Compound 73]: the IC50 is 17.4 to 86.9 µM under setting [1] and less than 1.74 µM under setting [2].

Regarding `Cc1ccc(S(=O)(=O)c2nnn3c2[nH]c(=O)c2ccc(N4CCN(CC(=O)N5C(C)CCC5C)CC4)cc23)c(C)c1` (stereo not drawn) [Compound 74], the “Ratio IC50 (in presence of HSA)/IC50” value was “+++ (+++: ratio ≤ 25)”. Also, the “IC50 at 40 mg/mL HSA” value under setting [3] is on record as “++ (++: 10 μg/mL < IC50 ≤ 50 μg/mL)”. Under setting [4], the “IC50 without HSA” value is listed as “+++ (+++: IC50 ≤ 1 μg/mL)”.

For the molecule `Cc1ccc(S(=O)(=O)c2nnn3c2[nH]c(=O)c2ccc(N4CCN(CC(=O)N5CCC(O)C5)CC4)cc23)c(C)c1` (stereo not drawn) [Compound 75], the “Ratio IC50 (in presence of HSA)/IC50” value is “+++ (+++: ratio ≤ 25)”. Also, the “IC50 at 40 mg/mL HSA” value under setting [3] is on record as “++ (++: 10 μg/mL < IC50 ≤ 50 μg/mL)”. Moreover, the “IC50 without HSA” value under setting [4] is recorded as “++ (++: 1 μg/mL < IC50 ≤ 5 μg/mL)”.

`Cc1ccc(S(=O)(=O)c2nnn3c2[nH]c(=O)c2ccc(N4CCN(CC(=O)N5CCCC5CO)CC4)cc23)c(C)c1` (stereo not drawn) [Compound 76]: the “Ratio IC50 (in presence of HSA)/IC50” value is “+++ (+++: ratio ≤ 25)”. In addition, the “IC50 at 40 mg/mL HSA” value under setting [3] is on record as “++ (++: 10 μg/mL < IC50 ≤ 50 μg/mL)”. In addition, the “IC50 without HSA” value under setting [4] is recorded as “++ (++: 1 μg/mL < IC50 ≤ 5 μg/mL)”.

As to `Cc1ccc(S(=O)(=O)c2nnn3c2[nH]c(=O)c2ccc(N4CCCN(CC(=O)N5CCCC5)CC4)cc23)c(C)c1` [Compound 83], the “Ratio IC50 (in presence of HSA)/IC50” value is “+++ (+++: ratio ≤ 25)”. Moreover, the concentration for half-maximal inhibition (IC50) at 40 mg/mL HSA under setting [3] is “+++ (+++: IC50 ≤ 10 μg/mL)”. Also, the “IC50 without HSA” value under setting [4] is listed as “++ (++: 1 μg/mL < IC50 ≤ 5 μg/mL)”.

On to `Cc1ccc(S(=O)(=O)c2nnn3c2[nH]c(=O)c2ccc(N4CCCN(CC(=O)N5CCOCC5)CC4)cc23)c(C)c1` [Compound 84], for which the “Ratio IC50 (in presence of HSA)/IC50” value was “+++ (+++: ratio ≤ 25)”. The “IC50 at 40 mg/mL HSA” value under setting [3] is “+++ (+++: IC50 ≤ 10 μg/mL)”. Besides, under setting [4], the “IC50 without HSA” value is on record as “++ (++: 1 μg/mL < IC50 ≤ 5 μg/mL)”.

Regarding `Cc1ccc(S(=O)(=O)c2nnn3c2[nH]c(=O)c2ccc(N4CCCN(CC(=O)N5CCCCC5)CC4)cc23)c(C)c1` [Compound 85], the IC50 is 17.3 to 86.5 µM under setting [1] and 1.73 to 8.65 µM under setting [2].

On to `Cc1ccc(S(=O)(=O)c2nnn3c2[nH]c(=O)c2ccc(N4CCN(CC(=O)NC5CCN(C)CC5)CC4)cc23)c(C)c1` [Compound 86], for which the half-inhibitory concentration (IC50) is, setting by setting: under setting [1], 16.9 to 84.4 µM; under setting [2], 1.69 to 8.44 µM.
